This is an account of results in patent US9399649B2, “Compounds for treating spinal muscular atrophy” (PTC Therapeutics Inc., priority 2012, dated 2016).

Test [1] concerns Smn protein. Kind of test: Smn protein levels in tissues of Δ7 SMA mice of the survival study. Format: in vivo. As to conditions: Compound 65 until PND 144, Compound 69 until PND 80 and PND 83, relative to vehicle treated and age-matched heterozygous mice, FIG. 16. The procedure: The tissue samples in Safe-Lock tubes are weighed and the volume of RIPA buffer containing the protease inhibitor cocktail is added based on the weight to volume ratios for each type of tissue: Brain (50 mgmL), Muscle (50 mgmL) and Spinal Cord (25 mgmL).
Tissues are homogenized using the TissueLyzer by bead milling. 5 mm stainless steel beads are added to the sample and shaken vigorously for 5 minutes at 30 Hz in the TissueLyzer. The samples are then centrifuged for 20 minutes at 14,000×g in a microcentrifuge and the homogenates transferred to the PCR plate. The homogenates are diluted in RIPA buffer to approximately 1 mgmL for HTRF and approximately 0.5 mgmL for total protein measurement using the BCA protein assay. […] Fluorescence for each well of the plate at 665 nm and 620 nm is measured on an EnVision multilabel plate reader (Perkin-Elmer). The total protein in the tissue homogenate is measured using the BCA assay according to the manufacturer's protocol.
The normalized fluorescence signal is calculated for each sample, Blank and vehicle control well by dividing the signal at 665 nm by the signal at 620 nm. Normalizing the signal accounts for possible fluorescence quenching due to the matrix effect of the tissue homogenate. […] The ΔF value for each tissue sample well is divided by the total protein quantity (determined using the BCA assay) for that tissue sample. […]

The test system of test [2] is Smn protein. Kind of test: Smn protein assay in human motor neurons. To be noted: human motor neurons derived from SMA iPS cells, 72 hours, increasing concentrations, FIG. 10. It is filed as cell-based. The procedure:
Smn immunofluorescent confocal microscopy is used to quantify the level of Smn protein in human motor neurons treated with test compounds.
Human motor neurons derived from SMA iPS cells (Ebert et al., Nature, 2009, […]; and, Rubin et al., BMC Biology, 2011, 9:42) are treated with test compound at various concentrations for 72 hours. The level of Smn protein in the cell nucleus is quantified using Smn immunostaining and confocal fluorescence microscopy essentially as described in Makhortova et al., Nature Chemical Biology, 2011, 7:544. The level of Smn protein in compound-treated samples is normalized to that in vehicle-treated samples and plotted as a function of the compound concentration.

Test [3] can be described thus: Body weight of neonatal Δ7 SMA mice. It is filed as in vivo. As to conditions: neonatal SMA Δ7 homozygous knockout mice, IP QD PND 3 to PND 23, then orally BID from PND 24 until study end, FIG. 13. The procedure: The change in body weight of neonatal SMA mice is used to determine whether treatment with a test compound improves body weight.
SMA Δ7 homozygous knockout mice are dosed intraperitoneally (IP) with test compound or vehicle (100% DMSO) QD from PND 3 until the dose regimen is switched to an oral dose BID in 0.5% hydroxypropylmethyl cellulose (HPMC) with 0.1% Tween-80 at a dose 3.16-fold higher than the dose used for IP. Body weights of SMA Δ7 mice treated with test compound or vehicle and age matched heterozygous mice are recorded every day.

`Cc1cn2cc(-c3cc4ccc(N5CCN(C)CC5)cc4c(=O)o3)nc2c(C)n1` [Cpd 65, 3-(6,8-dimethylimidazo[1,2-a]pyrazin-2-yl)-7-(4-methylpiperazin-1-yl)-1H-isochromen-1-one]: in test [1], the “Smn protein expression in brain and muscle tissues” value is “increased Smn protein expression in brain and muscle tissues”. For the same compound, the “Smn protein in the nucleus” value in test [2] is given as “progressively more Smn protein in the nucleus”. For the same compound, the body weight entry in test [3] was “improved compared to vehicle treated mice”.

Consider `Cc1cn2cc(-c3cc4ccc(N5CCN6CCC[C@H]6C5)cc4c(=O)o3)nc2c(C)n1` [Cpd 69, 3-(6,8-dimethylimidazo[1,2-a]pyrazin-2-yl)-7-[(8aS)-hexahydropyrrolo[1,2-a]pyrazin-2(1H)-yl]-1H-isochromen-1-one], for which, in test [1], the “Smn protein expression in brain and muscle tissues” value is “increased Smn protein expression in brain and muscle tissues”. The “Smn protein in the nucleus” value in test [2] is listed as “progressively more Smn protein in the nucleus”. In test [3], the body weight result was “improved compared to vehicle treated mice”.
